{"source": "patent US20120165403A1", "about": "“METHODS OF INHIBITING THE ACTIVITY OF HSP90 AND/OR ARYL HYDROCARBON RECEPTOR” (UNIVERSITY OF ROCHESTER, priority 2004, published 2012)", "key": {"[1]": {"test_system": "mouse AhR", "experiment": "Competitive binding by velocity sedimentation on sucrose density gradients", "conditions": "Hepa cytosol, 2 h, room temperature", "description": "Mouse hepatoma cells, Hepa1c1c7 (Hepa), and BP^rCl cells were maintained in modified Eagle's medium (Sigma) supplemented with 10% heat-inactivated fetal bovine serum, sodium pyruvate, L-glutamine, sodium bicarbonate, and Gentamicin (MEM+), at 37° C. in a humid atmosphere with 5% CO2. BP^rCl cells are a derivative of Hepa1c1c7 cells that lack ARNT protein expression and function (Probst et al., Mol. Pharmacol. 44:511-518 (1993), which is hereby incorporated by reference in its entirety). Upon reaching 90% confluency, cells were harvested and homogenized in HEDG buffer (25 mM HEPES, 1.5 mM Na2EDTA, 1 mM dithiothreitol, 10% (v/v) glycerol, pH 7.6) containing protease inhibitors (Roche Applied Science complete mini cocktail tablet, Indianapolis, Ind.). Both Hepa and BP^rC1 cytosols were prepared by centrifugation of the homogenate at 100,000 g for 45 min.\n(§1) Competitive binding of EGCG was analyzed by velocity sedimentation on sucrose gradients in a vertical tube rotor (Tsui et al., Can. J. Physiol. Pharmacol 59:927-931 (1981); Jensen et al., Toxicol. Sci. 64:41-56 (2001), which are hereby incorporated by reference in their entirety). Hepa cytosol (100 μl of 2.5 mg/ml) or BP^rCl cytosol was incubated for two hours at room temperature with either 3 nM ^3H-TCDD, 0.5 nM ^3H-TCDD, or 5 nM ^3H-BNF, in the presence of DMSO, 150-fold excess TCDF, 1 μM 3M4NF, or EGCG. Cytosols were washed with charcoal-dextran (1 mg charcoal/mg protein) in HEDG, and applied to a 10-30% (w/v) sucrose gradient in Beckman Quick-Seal centrifuge tubes (Beckman, Palo Alto, Calif.). [Methyl-^14C]-BSA was used as an internal sedimentation marker. The gradients were centrifuged for 2 h at 372,000×g in a Beckman VTI-80 rotor. Fractions were collected from the top at a rate of 1 ml/min, 0.2 ml/fraction. For competitive binding assays, fractions were assayed for radioactivity with ScintiVerse (Fisher Scientific, Fair Lawn, N.J.). […] For AhR and hsp90 density analysis, protein contained within an aliquot (200 of each fraction was separated by SDS-PAGE (7.5% acrylamide resolving gel) and transferred to PVDF membranes. Membranes were probed with antibodies recognizing AhR (Biomol) or hsp90 (Stressgen, Victoria, BC Canada). A crude estimate of the sedimentation coefficient for the EGCG shifted AhR complex was calculated by the method of Martin and Ames (Martin et al., J. Biol. Chem. 236:1372-1379 (1961), which is hereby incorporated by reference in its entirety) relative to the ^14C-BSA (4.4S) standard."}, "[2]": {"test_system": "AhR", "experiment": "Immunocytochemistry of AhR subcellular localization in Hepa cells", "type": "cell-based, mouse", "conditions": "1 h, EGCG 200 μM or TCDD 150 pM", "description": "Hepa cells were plated onto four-well chamber slides (Becton Dickinson, Bedford, Mass.) at a density of 2.0×10^4 and incubated overnight. Cells were treated with either vehicle (DMSO), TCDD (150 pM), EGCG alone (200 μM), or EGCG in the presence of TCDD (150 pM) for 1 h. Cells were fixed with 3.7% formalin at room temperature for 10 minutes, followed by a four minute incubation in anhydrous methanol at 4° C. All antibodies were filtered through a 0.45 micron filter before staining Cells were blocked for one hour in phosphate buffered saline containing 4% BSA, incubated with anti-AhR at a 1:2000 dilution for two hours at room temperature, followed by a one hour incubation with 1:1000 anti-rabbit Alexa-Fluor conjugated secondary antibody (Molecular Probes, Eugene Oreg.). Nuclei were stained with DAPI (0.5 μg/ml) (Molecular Probes) for three minutes at room temperature. Slides were mounted with 50% glycerol and coverslipped. AhR staining and nuclear staining were visualized using a Nikon Eclipse TS110 fluorescent microscope (40× magnification). Fluorescent images were captured using SPOT advanced software."}, "[3]": {"test_system": "AhR", "experiment": "AhR protein levels by western blotting in Hepa cells", "type": "cell-based, mouse", "conditions": "over 12 hours, EGCG 200 μM or TCDD 150 pM", "description": "Hepa cells were plated onto 6-well plates at a density of 5×10^5 cells/well and incubated overnight at 37° C. […] Cells were lysed (0.2% Triton, 5 mM EDTA in PBS) and total protein quantified using the Coomassie Plus Protein Assay Reagent (Pierce, Rockford, Ill.). Protein (30 μg) was separated by SDS-PAGE (7.5% acrylamide resolving gel) and transferred to PVDF membrane (Millipore, Bedford, Mass.). Membranes were probed with antibodies recognizing CYP1A1 (Xenotech, Lenexa, Kans.), AhR (Biomol, Plymouth Meeting, Pa.) and actin (Sigma). The secondary IgG antibodies were coupled to horseradish peroxidase (Jackson Immuno Research, West Grove, Pa.). Both primary and secondary antibodies were used at a dilution of 1:5000 in TBST (50 mM Tris, 300 mM NaCl, 0.5% Tween 20, pH 7.5) containing 5% milk. Proteins were visualized by chemiluminescence (KPL, Gaithersburg, Md.)."}, "[4]": {"test_system": "hsp90", "experiment": "Sucrose density gradient sedimentation of hsp90 in Hepa cytosol", "type": "biochemical, mouse", "conditions": "2 h, 200 μM EGCG or 10 nM TCDD", "description": "as §1, with “Cytosols were washed with charcoal-dextran (1 mg charcoal/mg protein) in HEDG, and applied to a 10-30% (w/v) sucrose gradient in Beckman Quick-Seal centrifuge tubes (Beckman, Palo Alto, Calif.). [Methyl-^14C]-BSA was used as an internal sedimentation marker. The gradients were centrifuged for 2 h at 372,000×g in a Beckman VTI-80 rotor. Fractions were collected from the top at a rate of 1 ml/min, 0.2 ml/fraction.” left out"}}}
{"smiles": "COc1cc(-c2cc(=O)c3ccccc3o2)ccc1[N+](=O)[O-]", "note": "[3M4NF, 3′-methoxy-4′ nitroflavone, reference compound]", "values": [{"measurement": "competition with 3H-TCDD for specific binding to the AhR (9S peak)", "setting": "[1]; 3 nM 3H-TCDD", "value": "inhibited the formation of this ^3H-TCDD peak"}]}
{"smiles": "O=c1cc(-c2cccc([N+](=O)[O-])c2)oc2ccccc12", "note": "[3′-nitroflavone, reference compound]", "values": [{"measurement": "competition with 3H-BNF for binding to the AhR", "setting": "[1]; 5 nM 3H-BNF", "value": "very efficiently competed with BNF binding"}]}
{"smiles": "Clc1cc2c(cc1Cl)Oc1cc(Cl)c(Cl)cc1O2", "note": "[TCDD, 2,3,7,8-tetrachlorodibenzo-p-dioxin, reference compound]", "values": [{"measurement": "subcellular localization of the AhR, treatment alone", "setting": "[2]", "value": "redistribution of the AhR from the cytosol to the nucleus"}, {"measurement": "AhR protein levels, treatment alone", "setting": "[3]", "value": "decline rapidly"}, {"measurement": "effect on the sedimentation pattern of hsp90", "setting": "[4]", "value": "did not appear to influence this sedimentation pattern"}]}
